ChEMBL document CHEMBL1629669, “Two clinical strains of Klebsiella pneumoniae carrying plasmid-borne blaIMP-4, blaSHV-12, and armA isolated at a Pediatric Center in Shanghai, China” (2009)
≈ marks a conversion by molar mass, not a printed value.

Tests used:
Type in all cases: functional
Klebsiella pneumoniae [1] = experiment: Antimicrobial activity against multidrug resistant Klebsiella pneumoniae isolate KpSCMC2 harboring int1, bla IMP-4, bla SHV-12, armA and sul1 gene isolated from patient with pulmonary infection by Etest method
Klebsiella pneumoniae [2] = experiment: Antimicrobial activity against multidrug resistant Klebsiella pneumoniae isolate KpSCMC2 harboring int1, bla IMP-4, bla SHV-12, armA and sul1 gene isolated from patient with pulmonary infection by disk diffusion method
Klebsiella pneumoniae [3] = experiment: Antimicrobial activity against carbapenem susceptible Klebsiella pneumoniae isolate KpSCMC2c harboring bla SHV-12 gene isolated from patient with pulmonary infection by disk diffusion method
Klebsiella pneumoniae [4] = experiment: Antimicrobial activity against carbapenem susceptible Klebsiella pneumoniae isolate KpSCMC2c harboring bla SHV-12 gene isolated from patient with pulmonary infection by Etest method
Klebsiella pneumoniae [5] = experiment: Antimicrobial activity against multidrug resistant Klebsiella pneumoniae isolate KpSCMC1 harboring int1, bla IMP-4, bla SHV-12, armA and sul1 gene isolated from patient with pulmonary infection by disk diffusion method
Klebsiella pneumoniae [6] = experiment: Antimicrobial activity against multidrug resistant Klebsiella pneumoniae isolate KpSCMC1 harboring int1, bla IMP-4, bla SHV-12, armA and sul1 gene isolated from patient with pulmonary infection by Etest method

SMILES: C[C@@H](O)[C@H]1C(=O)N2C(C(=O)O)=C(SCCNC=N)C[C@H]12 [IMIPENEM ANHYDROUS]
- MIC (Klebsiella pneumoniae [1]): 2 µg/mL (≈ 6.68 µM)
- inhibition zone (IZ) (Klebsiella pneumoniae [2]): 20 mm
- inhibition zone (IZ) (Klebsiella pneumoniae [3]): 26 mm
- MIC (Klebsiella pneumoniae [4]): 0.064 µg/mL (≈ 0.214 µM)
- inhibition zone (IZ) (Klebsiella pneumoniae [5]): 21 mm
- MIC (Klebsiella pneumoniae [6]): 3 µg/mL (≈ 10 µM)

SMILES: C[C@@H](O)[C@H]1C(=O)N2C(C(=O)O)=C(S[C@@H]3CN[C@H](C(=O)N(C)C)C3)[C@H](C)[C@H]12 [MEROPENEM]
- MIC (Klebsiella pneumoniae [1]): 4 µg/mL (≈ 10.4 µM)
- inhibition zone (IZ) (Klebsiella pneumoniae [2]): 13 mm
- inhibition zone (IZ) (Klebsiella pneumoniae [3]): 27 mm
- MIC (Klebsiella pneumoniae [4]): 0.25 µg/mL (≈ 0.652 µM)
- inhibition zone (IZ) (Klebsiella pneumoniae [5]): 14 mm
- MIC (Klebsiella pneumoniae [6]): 8 µg/mL (≈ 20.9 µM)
